Entries after “also recorded” stand apart in the source; their conditions may differ.

Assay [1] has as its system 4T1-luc cells. The assay can be described thus: 4T1-based intraductal model for triple-negative breast cancer: metastases. It is filed as in vivo, BALB/c mice. As to conditions: oral in Medigel, 100 mg/kg three times per day; 6 w p.i.; compared to DMSO. The protocol:
Intraductal inoculations were performed in the third mammary gland pair of lactating female mice. In order to become lactating, 8-w-old female BALB/c mice were mated with male BALB/c mice of the same age and pups were weaned 12-14 d after delivery. One hour after weaning, lactating females received inhalation anesthesia using a mixture of oxygen and isoflurane (2-3%) and were subsequently inoculated through the mammary teat canal using a 32-gauge blunt needle with 5×10^4 4T1-luc cells suspended in a 100 μl mixture of PBS and Matrigel® (1:10; Corning, Bedford, MA, USA). All necessary materials for inoculation were pre-cooled to avoid Matrigel® coagulation. […]
Compounds were dissolved in DMSO. […] The amount of Medigel given to the mice was weekly determined and depended on the mean mouse body weight and consumption. […]
Body weight and body temperature were measured every day during the first week p.i., and once a week during the following 5 weeks (i.e. up to 6 w p.i.) using a digital weighing scale and a rectal temperature probe, respectively. As a measurement of primary tumor growth, primary tumor volumes were weekly monitored using a digital caliper and 4T1-luc-derived bioluminescence in primary tumors was monitored at 1, 3 and 6 w p.i. using the IVIS lumina III system (PerkinElmer, Zaventem, Belgium). […]

Assay [2] has as its system CT5.3 hTERT colon CAFs. Put plainly: AFM spheroid stiffness, CT5.3 hTERT colon CAFs. It is filed as cell-based, human. As to conditions: 1 μM, 48 h. The source says:
(§1) It is well established that an increased tumor and ECM stiffness is associated with a negative prognosis as it promotes tumor growth, progression, therapy resistance, immunosuppression and metastasis. Stiffness is chiefly regulated by the action of the CAFs in the TME. Stiffness modulation is, therefore, a fitting read-out of activity in a screen for CAF modulators. To assess stiffness modulation, the stiffness of spheroids of CAF cells treated with test compounds was interrogated using atomic force microscopy (AFM) indentation and compared with untreated cells. AFM measurement of the stiffness (elasticity) of cells and spheroids is a technique well-known to those skilled in the art. AFM measures the force required to create a given deflection, this read-out is also known as the Young's modulus. AFM is widely used in biology and cancer research: altered physicochemical properties of live cells serve as a read-out of altered complex physiological processes.
U-shaped, 384-well ULA plates (cat. no. MS-9384UZ, S-bio) were seeded with a suspension of cell-specific culture media with cells. Cells were allowed to form spheroids for an appropriate time under treatment conditions before use in experiments. Cell culture dishes (cat. no. 734-2814, VWR) were filled with collagen gel and placed at 37° C. for an appropriate time to allow solidification. […]

Assay [3] relates to CAF03 glioblastoma CAFs. The assay can be described thus: AFM spheroid stiffness, CAF03 glioblastoma CAFs. The format is cell-based. The following applies: 1 μM, 48 h.
Description: as §1
U-shaped, 384-well ULA plates (cat. no. MS-9384UZ, S-bio) were seeded with a suspension of cell-specific culture media with cells. Cells were allowed to form spheroids for an appropriate time under treatment conditions before use in experiments. Cell culture dishes (cat. no. 734-2814, VWR) were filled with collagen gel and placed at 37° C. for an appropriate time to allow solidification. For each condition, spheroids were pooled in one cell culture dish. The medium was removed (stored at 37° C.) to promote attachment of the bottom of each spheroid to the collagen gel. The cell culture dishes were incubated at 37° C. After the incubation period, the stored medium was carefully (prevent detachment of spheroids) added to the dishes.
Mechanical measurements were performed using an atomic force microscope. To indent the spheroids an in-house made colloidal probe was used. Force curves were collected using an appropriate setpoint and probe speed (depending on the stiffness of the spheroids). On each spheroid multiple force curves were collected. Collected curves were then processed using the JPK DP software. Young's modulus was extracted from the force curves. All experiments were performed in biological triplicate.
To generate 3D cultures mimicking the complexity and pathophysiology of in vivo tumors, spheroids were used (cfr. point 4). Spheroids are considered to better simulate cellular heterogeneity, nutrient and oxygen gradients, cell-cell interactions, cell-matrix interactions, gene expression profiles, stromal interactions, therapeutic responses, multicellular resistance, drug penetration and anti-apoptotic signaling.

`COc1cc(C(=O)/C=C/c2ccc(F)cc2)cc(OC)c1OC` [Compound A1, 3-(4-Fluorophenyl)-1-(3,4,5-trimethoxyphenyl)prop2-en-1-one]: in assay [1], the “metastatic burden in lung, liver and axillary lymph node metastases (ex-vivo bioluminescence)” value is reported as “overall reduction”. The spheroid stiffness entry in assay [2] is “decreased”; in assay [3], “decreased; also recorded: active”.
The like results for `COc1cc2oc(-c3ccc(F)cc3)cc(=O)c2c(OC)c1OC` [Compound B1, 2-(4-Fluorophenyl)-5,6,7-trimethoxy-4H-chromen-4-one] were, in that order, “overall reduction”, “decreased” and “active”.

For the origin of these results see patent US20260191817A1, “FIBROBLAST MODULATORS IN STROMA-RICH TUMORS” (UNIVERSITEIT GENT, priority 2022, published 2026).
